Patent US12448369B2 (Edgewise Therapeutics, Inc., priority 2023, dated 2025)

What follows are compounds tested on Rabbit Psoas myofibrils (skeletal myosin ATPase) (assay: Myofibril ATPase assay, rabbit psoas (skeletal) myofibrils). Settings: Y75 value (no ‡ mark); rabbit psoas myofibrils.
Assay type: biochemical
Protocol: (§1) Example 1. Myofibril ATPase Assay
(§2) Myofibril ATPase assays are known in the art to be useful in evaluating small molecules for the treatment of HCM and other cardiac indications. Myosin ATPase activity is assessed by using a coupled reaction system, in which ADP generated by the myosin ATPase function is coupled to the disappearance of NADH through the pyruvate kinase/lactate dehydrogenase (PK-LDH) system. ATPase activity produces ADP, which is used as a substrate for PK to produce pyruvate and regenerate ATP. The pyruvate is then used as a substrate by LDH to oxidize NADH to NAD+. The rate of the reaction is monitored through the time-dependent disappearance of NADH using absorbance at 340 nm, which, when the couple system is in stoichiometric excess, is directly correlated to the ATPase activity of the myosin. Inhibition of ATPase activity by the assayed compounds is indicated by a reduced rate of NADH loss, relative to vehicle-treated controls, over the experimental time window. Activation of ATPase activity by the assayed compounds is indicated by an increased rate of NADH loss, relative to vehicle-treated controls, over the experimental time window. Rabbit Psoas, Porcine atria, and Porcine ventricle are the primary sources of myofibril material.
(§3) Materials: The following stock solutions and reagents were used in the Myofibril ATPase Assay:
(§4) Stock Solutions of pCa buffer. Combine PIPES, CaCl2, and EGTA solutions with water. Adjust pH to 7.0 and bring final volume to 100 mL.
(§5) Buffer A & Buffer B. Prepare buffers A and B according to the table below.
(§6) Myofibril ATPase Assay Procedure: BSA, ATP, NADH, PEP, and DTT solutions were thawed at room temperature, then transferred to ice. Pellet-frozen myofibrils were transferred with approximately twice the required volume into a sufficiently large tube and capped. Myofibrils were thawed by rolling in a water bath for approximately 15 min at room temperature and cooled on ice. Buffers A and B were prepared by adjusting volumes as necessary for required number of wells and stored on ice. 0.5 μL of the compounds to be assayed were added into wells. 25 μL of Buffer A was dispensed into the wells, followed by 25 μL of Buffer B. The wells were measured for absorbance at 340 nm, using a kinetic protocol in which the wells are read every 1.5-2 min for 75 min. Assay data analysis was performed using a python script that filtered the raw data to retain those points falling between a starting and ending time and between a maximum and minimum absorbance, then used the filtered time-domain 340 nm absorbance data in each well to calculate a slope via linear regression analysis in units of mAU/min. Compound slopes were normalized between 100% and 0% activity, where 100% represented the slope of wells containing only compound vehicle, and fit to a 4-parameter logistic model. In addition to the fit parameters, the EC25% values were calculated, relative to the 100% normalized value. Additionally, the Y125 values were calculated for compounds that increased myosin ATP-ase activity. Fit parameters, calculated effective concentrations, filtered raw data, and calculated slopes were exported, in addition to compound-specific graphs of normalized ATPase activity versus concentration in μM. Each value reported in Table 5, Table 6, and Table 7 is either a Y75 value or a Y125 value. Values without a double cross sign, ‡, are Y75 values, which reflect the concentration required to reduce myosin ATP-ase activity by 25% (e.g., Y-axis activity value is 75% of initial value), relative to myosin ATP-ase activity in the absence of exogenous compound.
Skeletal Myofibril Isolation:
(§7) Myofibrils from various animals and tissue types were acquired from a variety of sources: rabbit psoas muscle was purchased from Pel-Freez Biologicals (Rogers, AR) and porcine cardiac muscle was purchased from Exemplar Genetics. All myofibrils were prepared using a method based upon those described in Herrmann et al. (1993) and summarized here. […]

SMILES	Skeletal EC25 [nM]
C[C@H](NC(=O)Cc1cc2c(F)c(F)ccc2[nH]c1=O)c1ccc(C#N)cn1 [compound 18]	80
C[C@H](NC(=O)Cc1c(C2CC2)c2cc(F)ccc2[nH]c1=O)c1ccc(C#N)cc1F [compound 74]	10
Cc1c(CC(=O)N[C@H](C)c2ncc(C#N)cn2)c(=O)[nH]c2ccc(F)cc12 [compound 1070]	2500
N#Cc1cnc2c(n1)CC[C@H]2NC(=O)Cc1cc2cc(F)c(F)cc2[nH]c1=O [compound 1082]	100000
Cc1cc(C#N)nnc1[C@H](C)NC(=O)Cc1c(C)c2c(F)c(F)ccc2[nH]c1=O [compound 1136]	50
C[C@H](NC(=O)C(F)(F)c1cc2c(F)c(F)ccc2[nH]c1=O)c1cc(C#N)ccn1 (single isomer, unassigned) [compound 2558]	100000
Cc1c(CC(=O)N[C@@H](C)c2ncc(C#N)cc2F)c(=O)[nH]c2ccc(Cl)cc12 (single isomer, unassigned) [compound 2050]	40
Cc1c(C(F)(F)C(=O)N[C@H](C)c2ncc(C#N)cn2)c(=O)[nH]c2ccc(F)c(C#N)c12 (single isomer, unassigned) [compound 2521]	410
Cc1c(C2(C(=O)N[C@@H](C)c3cc(C#N)ccn3)CC2)c(=O)[nH]c2ccc(F)c(F)c12 (single isomer, unassigned) [compound 2540]	960
Cc1nc(C#N)ccc1[C@@H](C)NC(=O)Cc1c(C)c2cc(F)ccc2[nH]c1=O [compound 1050]	3400
Cc1nnccc1[C@H](C)NC(=O)Cc1c(C)c2cc(F)ccc2[nH]c1=O [compound 1091]	100000
Cc1cc(C#N)nnc1[C@@H](C)NC(=O)Cc1c(C)c2c(F)c(F)ccc2[nH]c1=O [compound 1135]	2900
Cc1c(CC(=O)N[C@@H](CO)c2ccc(C#N)cc2F)c(=O)[nH]c2ccc(F)c(C3CC3)c12 [compound 72]	20
CC(NC(=O)C1(c2cc3c(F)c(F)ccc3[nH]c2=O)CC1)c1cccc(C#N)n1 (single isomer, unassigned) [Compound 2569]	100000

Each compound was assayed against T1, Porcine ventricle myofibrils (ventricular myosin ATPase) (Sus scrofa, UniProt P79293) (assay: Myofibril ATPase assay, porcine ventricle myofibrils). Settings: Y75 value (no ‡ mark); porcine ventricle myofibrils.
T1 construct: Myofibrils from porcine cardiac muscle was isolated from the left ventricle of Yucatan minipigs; tissue Exemplar Genetics; host or cells: left ventricle of Yucatan minipigs, myofibrils prepared in house
T1 sequence (P79293 whole entry): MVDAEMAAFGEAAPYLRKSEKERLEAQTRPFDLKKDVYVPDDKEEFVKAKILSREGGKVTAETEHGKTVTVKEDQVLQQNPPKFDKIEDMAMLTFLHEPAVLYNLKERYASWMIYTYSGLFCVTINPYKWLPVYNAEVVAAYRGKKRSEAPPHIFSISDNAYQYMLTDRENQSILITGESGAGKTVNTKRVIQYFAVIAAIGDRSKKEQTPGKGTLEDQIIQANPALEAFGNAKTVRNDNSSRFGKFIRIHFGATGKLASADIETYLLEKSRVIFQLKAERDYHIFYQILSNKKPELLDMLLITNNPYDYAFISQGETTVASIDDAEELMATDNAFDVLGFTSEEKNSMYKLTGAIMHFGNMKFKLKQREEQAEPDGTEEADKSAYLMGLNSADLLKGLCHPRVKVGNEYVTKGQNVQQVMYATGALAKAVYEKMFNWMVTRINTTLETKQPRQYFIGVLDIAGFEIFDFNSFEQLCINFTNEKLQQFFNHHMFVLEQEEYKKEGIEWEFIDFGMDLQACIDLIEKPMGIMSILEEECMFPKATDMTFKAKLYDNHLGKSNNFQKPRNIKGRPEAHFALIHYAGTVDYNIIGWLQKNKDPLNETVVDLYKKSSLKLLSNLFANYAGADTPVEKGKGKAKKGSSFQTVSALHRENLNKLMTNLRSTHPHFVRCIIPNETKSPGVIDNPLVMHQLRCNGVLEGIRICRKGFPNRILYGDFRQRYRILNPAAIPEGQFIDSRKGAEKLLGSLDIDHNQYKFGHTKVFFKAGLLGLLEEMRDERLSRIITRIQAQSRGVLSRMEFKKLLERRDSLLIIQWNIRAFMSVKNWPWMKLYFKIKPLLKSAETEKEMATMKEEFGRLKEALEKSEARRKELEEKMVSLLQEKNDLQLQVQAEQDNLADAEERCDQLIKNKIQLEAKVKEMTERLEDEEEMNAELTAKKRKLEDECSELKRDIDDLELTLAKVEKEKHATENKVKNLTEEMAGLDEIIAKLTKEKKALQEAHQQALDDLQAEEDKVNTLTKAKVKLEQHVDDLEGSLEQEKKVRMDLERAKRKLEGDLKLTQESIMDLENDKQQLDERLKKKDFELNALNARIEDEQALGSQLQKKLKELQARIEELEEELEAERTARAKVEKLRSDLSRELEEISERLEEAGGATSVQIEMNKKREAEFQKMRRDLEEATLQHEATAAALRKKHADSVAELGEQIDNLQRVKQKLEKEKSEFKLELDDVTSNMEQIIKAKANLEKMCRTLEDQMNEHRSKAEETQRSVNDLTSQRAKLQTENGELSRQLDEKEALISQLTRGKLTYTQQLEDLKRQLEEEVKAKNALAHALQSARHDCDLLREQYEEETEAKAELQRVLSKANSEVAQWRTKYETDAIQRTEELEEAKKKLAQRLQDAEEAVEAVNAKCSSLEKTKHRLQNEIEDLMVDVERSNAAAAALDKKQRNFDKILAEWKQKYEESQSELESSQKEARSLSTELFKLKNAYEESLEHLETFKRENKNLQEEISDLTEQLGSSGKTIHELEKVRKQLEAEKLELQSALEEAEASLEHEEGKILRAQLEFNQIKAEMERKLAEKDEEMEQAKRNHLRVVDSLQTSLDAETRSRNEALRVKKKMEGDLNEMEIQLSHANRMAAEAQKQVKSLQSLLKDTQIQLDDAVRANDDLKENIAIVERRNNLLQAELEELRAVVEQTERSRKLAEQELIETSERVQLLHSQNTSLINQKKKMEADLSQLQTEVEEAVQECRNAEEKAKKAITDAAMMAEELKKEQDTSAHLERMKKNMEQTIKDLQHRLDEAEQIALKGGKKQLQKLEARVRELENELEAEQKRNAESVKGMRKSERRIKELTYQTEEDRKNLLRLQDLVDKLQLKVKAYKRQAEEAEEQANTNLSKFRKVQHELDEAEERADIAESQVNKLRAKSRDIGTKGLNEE
Assay type: biochemical, porcine (Yucatan minipigs)
Protocol: as §1, §2, §3, §4, §5, §6
Cardiac Myofibril Isolation:
Myofibrils from porcine cardiac muscle was isolated from the left ventricle of Yucatan minipigs. Myofibrils were prepared using a method based upon those described in Herrmann et al. (1993) and summarized here. […]

SMILES	Ventricular EC25 [nM]
C[C@H](NC(=O)Cc1cc2c(F)c(F)ccc2[nH]c1=O)c1ccc(C#N)cn1 [compound 18]	260
C[C@H](NC(=O)Cc1c(C2CC2)c2cc(F)ccc2[nH]c1=O)c1ccc(C#N)cc1F [compound 74]	460
Cc1c(CC(=O)N[C@H](C)c2ncc(C#N)cn2)c(=O)[nH]c2ccc(F)cc12 [compound 1070]	1720
N#Cc1cnc2c(n1)CC[C@H]2NC(=O)Cc1cc2cc(F)c(F)cc2[nH]c1=O [compound 1082]	100000
Cc1cc(C#N)nnc1[C@H](C)NC(=O)Cc1c(C)c2c(F)c(F)ccc2[nH]c1=O [compound 1136]	120
C[C@H](NC(=O)C(F)(F)c1cc2c(F)c(F)ccc2[nH]c1=O)c1cc(C#N)ccn1 (single isomer, unassigned) [compound 2558]	81970
Cc1c(CC(=O)N[C@@H](C)c2ncc(C#N)cc2F)c(=O)[nH]c2ccc(Cl)cc12 (single isomer, unassigned) [compound 2050]	180
Cc1c(C(F)(F)C(=O)N[C@H](C)c2ncc(C#N)cn2)c(=O)[nH]c2ccc(F)c(C#N)c12 (single isomer, unassigned) [compound 2521]	1830
Cc1c(C2(C(=O)N[C@@H](C)c3cc(C#N)ccn3)CC2)c(=O)[nH]c2ccc(F)c(F)c12 (single isomer, unassigned) [compound 2540]	100000
Cc1nc(C#N)ccc1[C@@H](C)NC(=O)Cc1c(C)c2cc(F)ccc2[nH]c1=O [compound 1050]	2360
Cc1nnccc1[C@H](C)NC(=O)Cc1c(C)c2cc(F)ccc2[nH]c1=O [compound 1091]	80110
Cc1cc(C#N)nnc1[C@@H](C)NC(=O)Cc1c(C)c2c(F)c(F)ccc2[nH]c1=O [compound 1135]	5940
Cc1c(CC(=O)N[C@@H](CO)c2ccc(C#N)cc2F)c(=O)[nH]c2ccc(F)c(C3CC3)c12 [compound 72]	340
CC(NC(=O)C1(c2cc3c(F)c(F)ccc3[nH]c2=O)CC1)c1cccc(C#N)n1 (single isomer, unassigned) [Compound 2569]	100000

Each compound was assayed on Porcine atria myofibrils (atrial myosin ATPase) (assay: Myofibril ATPase assay, porcine atria myofibrils). Settings: Y75 value (no ‡ mark); porcine atria myofibrils.
Assay type: biochemical
Protocol: as §1, §2, §3, §4, §5, §6, §7

SMILES	Atrial EC25 [µM]
C[C@H](NC(=O)Cc1cc2c(F)c(F)ccc2[nH]c1=O)c1ccc(C#N)cn1 [compound 18]	0.09
C[C@H](NC(=O)Cc1c(C2CC2)c2cc(F)ccc2[nH]c1=O)c1ccc(C#N)cc1F [compound 74]	0.69
Cc1c(CC(=O)N[C@H](C)c2ncc(C#N)cn2)c(=O)[nH]c2ccc(F)cc12 [compound 1070]	0.22
N#Cc1cnc2c(n1)CC[C@H]2NC(=O)Cc1cc2cc(F)c(F)cc2[nH]c1=O [compound 1082]	100.00
Cc1cc(C#N)nnc1[C@H](C)NC(=O)Cc1c(C)c2c(F)c(F)ccc2[nH]c1=O [compound 1136]	0.14
C[C@H](NC(=O)C(F)(F)c1cc2c(F)c(F)ccc2[nH]c1=O)c1cc(C#N)ccn1 (single isomer, unassigned) [compound 2558]	31.66
Cc1c(CC(=O)N[C@@H](C)c2ncc(C#N)cc2F)c(=O)[nH]c2ccc(Cl)cc12 (single isomer, unassigned) [compound 2050]	0.09
Cc1c(C(F)(F)C(=O)N[C@H](C)c2ncc(C#N)cn2)c(=O)[nH]c2ccc(F)c(C#N)c12 (single isomer, unassigned) [compound 2521]	0.32
Cc1nc(C#N)ccc1[C@@H](C)NC(=O)Cc1c(C)c2cc(F)ccc2[nH]c1=O [compound 1050]	0.22
Cc1nnccc1[C@H](C)NC(=O)Cc1c(C)c2cc(F)ccc2[nH]c1=O [compound 1091]	53.30
Cc1cc(C#N)nnc1[C@@H](C)NC(=O)Cc1c(C)c2c(F)c(F)ccc2[nH]c1=O [compound 1135]	0.59
Cc1c(CC(=O)N[C@@H](CO)c2ccc(C#N)cc2F)c(=O)[nH]c2ccc(F)c(C3CC3)c12 [compound 72]	0.08
CC(NC(=O)C1(c2cc3c(F)c(F)ccc3[nH]c2=O)CC1)c1cccc(C#N)n1 (single isomer, unassigned) [Compound 2569]	4.84

Same assay, conditions: ‡ Y125 value, not a Y75 value (125% activity relative to no compound); porcine atria myofibrils

SMILES	Atrial EC25
Cc1c(C2(C(=O)N[C@@H](C)c3cc(C#N)ccn3)CC2)c(=O)[nH]c2ccc(F)c(F)c12 (single isomer, unassigned) [compound 2540]	100.00‡ μM
